Test results: patent publication US20240374626A1, “METHODS OF ENHANCING MILK PRODUCTION IN LACTATING MAMMALIAN SUBJECTS” (priority 2023, published 2024)

Legend:
γH2AX [1] = experiment: γH2AX immunofluorescence on HC11 cells; format: cell-based, mouse; conditions: HC11, doxorubicin 50 nM, 24 h post-treatment
Protocol: […] Drugs were maintained through the differentiation process and added with every change of media.
HC11 cells were fixed using ice-cold MeOH for 10 min. After washing with 1×PBS, cells were incubated for 1 h at room temperature with primary antibodies [anti-γH2AX (SCBT, sc-517348), anti-pATR (Genetex, GTX128145), anti-PLIN2 (generously provided by Jim McManaman)] in a humid incubation chamber. After incubation, cells were washed three times using 1×PBS and incubated for 1 h at room temperature in darkness using corresponding Alexa Fluor AffiniPure secondary antibodies (Jackson ImmunoResearch) and Phalloidin-iFluor 488 Reagent (Abcam, ab176753) when indicated. Cells were washed three times using 1×PBS and incubated with Hoechst 33342 (AnaSpec, AS-83218) for 10 min. Cells were mounted using fluoromount-G (Southern Biotech, 0100-01) and visualized using Zeiss Axio Imager Microscope. Integrated density of PLIN2, nuclear γH2AX and nuclear pATR was quantify using ImageJ.

γH2AX [2] = experiment: Contralateral intraductal injection: γH2AX IHC in CK8+ luminal cells of MG; format: in vivo, mouse; conditions: doxorubicin IDI (1.5 μg per gland) at PD12.5 vs contralateral DMSO vehicle, 24 h post-injection (PD13.5)
Protocol: (§1) Nulliparous analysis was performed using adult (10-12-week-old) female mice. For timed pregnancies and lactation analysis, CD-1 pregnant adult females were obtained from Charles Rivers. Embryos were examined at the time of mammary gland harvesting to confirm pregnancy state. […] Plugged mice were considered to be PD0.5 on the day of the observed plug. All females used in this study were age matched.
Mice were anesthetized with isoflurane (VetOne, 501017) Prior to intraductal injections, hair was removed from around the nipples using Nair hair remover. Injections into the duct of the nipple were performed with 33 G needles (Hamilton, 7803-05) and a volume of 40 μl per gland. Right inguinal, abdominal and thoracic glands were injected with doxorubicin (1.5 μg per gland, Cayman Chemical, 15007), nucleosides (40 μl per gland, Millipore-Sigma, ES-008-D) or Mk-1775 (50 μg per gland, Cayman Chemical, 21266), and left glands were injected with PBS or DMSO (Thermo Scientific, BP231) diluted in PBS.
Mammary gland tissue was fixed in 10% neutral buffered formalin (EMD Millipore, MR0458682) at 4° C. overnight. Fixation was quenched using 0.2% glycine (Fisher Scientific, BP381) in PBS, for 1 h at room temperature. […] Integrated density of nuclear γH2AX and pATR was quantified using ImageJ.

MG alveoli = experiment: Contralateral intraductal injection: milk staining (IHC) integrated density per alveolus; format: in vivo, mouse; conditions: Mk-1775 IDI at PD16.5 vs contralateral DMSO, LD5 MGs
Protocol: as §1
Mice were anesthetized with isoflurane (VetOne, 501017) Prior to intraductal injections, hair was removed from around the nipples using Nair hair remover. Injections into the duct of the nipple were performed with 33 G needles (Hamilton, 7803-05) and a volume of 40 μl per gland. […]
Mammary gland tissue was fixed in 10% neutral buffered formalin (EMD Millipore, MR0458682) at 4° C. overnight. […] Incubation with secondary antibodies [(donkey anti-Rat 647 (Thermo-Invitrogen; A48272) and donkey anti-Rabbit 488 (Thermo-Invitrogen; A32790)] was performed for 2 h at room temperature. Sections were washed with 0.3% triton in PBS for 30 min (×3) at room temperature and mounted using flouromount-G (Southern Biotech, 0100-01). Image acquisition was performed using Zeiss Axio Imager Microscope. Macros were generated to quantify lumen milk integrated density per alveolus using Image J.

Row | Compound | γH2AX (γH2AX [1]) | γH2AX in CK8+ luminal cells (γH2AX [2]) | decrease in milk production (IHC, milk integrated density per alveolus) (MG alveoli)
1 | COc1cccc2c1C(=O)c1c(O)c3c(c(O)c1C2=O)C[C@@](O)(C(=O)CO)C[C@@H]3O[C@H]1C[C@H](N)[C@H](O)[C@H](C)O1 [doxorubicin] | increase | Increased | –
2 | C=CCn1c(=O)c2cnc(Nc3ccc(N4CCN(C)CC4)cc3)nc2n1-c1cccc(C(C)(C)O)n1 [Mk-1775] | – | – | 21%
